ChEMBL document CHEMBL5532675, “Discovery of 4-Ethoxy-6-chloro-5-azaindazoles as Novel PDE4 Inhibitors for the Treatment of Alcohol Use Disorder and Alcoholic Liver Diseases” (J Med Chem, 2024)
One block for each compound: values may come before it. Active and inactive are the calls of the source. No cut-off for these calls is given here.

What was measured:
[1] = target: T1, 3',5'-cyclic-AMP phosphodiesterase 4D (Homo sapiens, UniProt Q08499); assay: Inhibition of PDE4D7 (unknown origin) using FAM-cyclic-3',5'-AMP as substrate at 1 microM incubated for 1 hrs by fluorescence polarization based IMAP assay relative to control
T1 sequence (Q08499 whole entry): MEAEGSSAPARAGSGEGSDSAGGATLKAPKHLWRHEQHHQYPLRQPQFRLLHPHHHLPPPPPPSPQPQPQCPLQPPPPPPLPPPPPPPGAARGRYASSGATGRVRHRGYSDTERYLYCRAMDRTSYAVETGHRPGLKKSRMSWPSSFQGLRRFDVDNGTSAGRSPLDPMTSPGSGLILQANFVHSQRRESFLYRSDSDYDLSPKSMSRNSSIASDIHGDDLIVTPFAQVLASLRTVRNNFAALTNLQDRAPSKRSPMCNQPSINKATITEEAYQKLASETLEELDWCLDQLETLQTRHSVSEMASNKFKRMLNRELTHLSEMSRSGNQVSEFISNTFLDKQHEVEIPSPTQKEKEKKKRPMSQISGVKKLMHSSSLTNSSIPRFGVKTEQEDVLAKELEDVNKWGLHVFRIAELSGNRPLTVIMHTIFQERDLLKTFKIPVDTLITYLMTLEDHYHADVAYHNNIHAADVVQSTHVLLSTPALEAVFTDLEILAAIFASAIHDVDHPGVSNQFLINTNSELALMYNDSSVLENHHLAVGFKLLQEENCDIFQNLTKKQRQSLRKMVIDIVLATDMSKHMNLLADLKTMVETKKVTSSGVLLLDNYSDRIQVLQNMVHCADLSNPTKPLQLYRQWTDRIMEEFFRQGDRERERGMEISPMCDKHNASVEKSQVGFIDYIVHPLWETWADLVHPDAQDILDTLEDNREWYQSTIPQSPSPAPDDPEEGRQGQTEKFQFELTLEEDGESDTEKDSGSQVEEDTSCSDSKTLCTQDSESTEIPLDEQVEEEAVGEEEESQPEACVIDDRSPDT

[2] = target: T1, 3',5'-cyclic-AMP phosphodiesterase 4D; assay: Inhibition of PDE4D7 (unknown origin) using FAM-cyclic-3',5'-AMP as substrate at 100 nM incubated for 1 hrs by fluorescence polarization based IMAP assay relative to control
[3] = target: T1, 3',5'-cyclic-AMP phosphodiesterase 4D; assay: Inhibition of PDE4D7 (unknown origin) using FAM-cyclic-3',5'-AMP as substrate incubated for 1 hrs by fluorescence polarization based IMAP assay
[4] = Toxicity in ketamine/xylazine-induced anesthetic C57BL/6J mouse model assessed as emetogenic potential by measuring reduction in anesthesia duration at 0.5 mg/kg, po preadministered with compound for 15 mins followed by ketamine/xylazine administration; type: organism-based; conditions: in vivo, 0.25 h
[5] = Chemical stability of compound in aqueous solution at pH <6 measured after 48 hrs; type: physicochemical; conditions: buffer
[6] = Chemical stability of compound in aqueous solution at pH >10 measured after 48 hrs; type: physicochemical; conditions: buffer
HT-22 = assay: Cytotoxicity against mouse HT-22 cells assessed as reduction in cell viability at 30 uM incubated for 48 hrs by MTT assay; type: toxicity, cell-based; conditions: ht-22, 48 h
[7] = target: T1, 3',5'-cyclic-AMP phosphodiesterase 4D; assay: Inhibition of PDE4D7 (unknown origin) using FAM-cyclic-3',5'-AMP as substrate at 10 nM incubated for 1 hrs by fluorescence polarization based IMAP assay relative to control
SH-SY5Y = assay: Cytotoxicity against human SH-SY5Y cells assessed as reduction in cell viability at 20 uM incubated for 48 hrs by MTT assay; type: toxicity, cell-based
Mus musculus [8] = assay: (§1) Protection against alcohol-induced motor impairment in C57BL/6J mouse model assessed as recovery of average speed at 1 mg/kg, po preadministered with compound every 24 hrs for 3 times followed by alcohol administration 30 mins post last dose and further treated with compound for 3 days followed by alcohol administration 30 mins post last dose and measured at 2 to 20 mins by open field test; type: functional, organism-based; conditions: time 8702-8720 min
Mus musculus [9] = assay: (§2) Protection against alcoholic liver disease in NIAAA C57BL/6J mouse model assessed as reduction in liver IL-1beta mRNA level at 1 mg/kg, po preadministered with 1 to 4 % of alcohol for 10 days with subsequent compound addition from day 6 to 11 and further administered with 31.25 % alcohol on day 11 and measured after 9 hrs by RT-qPCR analysis; type: functional, organism-based; conditions: time 5.0 day
Mus musculus [10] = assay: (§3) Protection against alcohol exposure-induced anxiety like behavior in C57BL/6J mouse model assessed as increase in center time at 1 mg/kg, po pre-trained with alcohol and water for 42 days with subsequent compound addition from day 22 to day 42 followed by 3.5 hrs of darkness and compound administration for 30 mins followed by water replacement with alcohol for 4 hrs and measured 24 hrs after alcohol withdrawal by open field test; type: functional, organism-based
Mus musculus [11] = assay: Protection against alcohol use disorder in C57BL/6J mouse model assessed as decrease in alcohol preference at 1 mg/kg, po pre-trained with alcohol and water for 42 days with subsequent compound addition on day 22 and measured after 3 weeks by two-bottle choice test; type: functional, organism-based
Mus musculus [12] = assay: as §2, with “decrease” for “reduction”, “serum AST” for “liver IL-1beta mRNA”, “absorbance based plate analyzer” for “RT-qPCR analysis”; type: functional, organism-based; conditions: time 5.0 day
Mus musculus [13] = assay: Protection against alcohol use disorder in C57BL/6J mouse model assessed as decrease in alcohol intake at 1 mg/kg, po pre-trained with alcohol and water for 42 days with subsequent compound addition on day 22 and measured after 3 weeks by two-bottle choice test; type: functional, organism-based
Mus musculus [14] = assay: as §2, with “serum TNF-alpha” for “liver IL-1beta mRNA”, “ELISA” for “RT-qPCR analysis”; type: functional, organism-based; conditions: time 5.0 day
Mus musculus [15] = assay: as §2, with “improvement of steatosis” for “reduction in liver IL-1beta mRNA level”, “H&E staining based light microscopic” for “RT-qPCR”; type: functional, organism-based; conditions: time 5.0 day
Mus musculus [16] = assay: as §2, with “decrease” for “reduction”, “serum ALT” for “liver IL-1beta mRNA”, “absorbance based plate analyzer” for “RT-qPCR analysis”; type: functional, organism-based; conditions: time 5.0 day
Mus musculus [17] = assay: as §1, with “increase in distance travelled” for “recovery of average speed”; type: functional, organism-based; conditions: time 8702-8720 min
Mus musculus [18] = assay: Protection against alcohol-induced sedation in C57BL/6J mouse model assessed as reduction in sleep time at 1 mg/kg, po preadministered with compound every 24 hrs for 3 times followed by alcohol administration 30 mins post last dose; type: functional, organism-based; conditions: time 72.5 hrs
Mus musculus [19] = assay: as §3, with “distance travelled” for “increase in center time”; type: functional, organism-based; conditions: time 24.0 day
Mus musculus [20] = assay: as §2, with “serum IL-6” for “liver IL-1beta mRNA”, “ELISA” for “RT-qPCR analysis”; type: functional, organism-based; conditions: time 5.0 day
[21] = Toxicity in ketamine/xylazine-induced anesthetic C57BL/6J mouse model assessed as emetogenic potential by measuring reduction in anesthesia duration at 0.5 to 1 mg/kg, po preadministered with compound for 15 mins followed by ketamine/xylazine administration; type: organism-based; conditions: in vivo, 0.25 h, dose 0.5-1 mg/kg
Mus musculus [22] = assay: as §2, with “IL-6” for “IL-1beta”; type: functional, organism-based; conditions: time 5.0 day
Mus musculus [23] = assay: as §1, with “decrease in resting time” for “recovery of average speed”; type: functional, organism-based; conditions: time 8702-8720 min
Mus musculus [24] = assay: as §2, with “decrease” for “reduction”, “index” for “IL-1beta mRNA level”, “hrs” for “hrs by RT-qPCR analysis”; type: functional, organism-based; conditions: time 5.0 day
Mus musculus [25] = assay: as §2, with “improvement of” for “reduction in”, “injury” for “IL-1beta mRNA level”, “H&E staining based light microscopic” for “RT-qPCR”; type: functional, organism-based; conditions: time 5.0 day
Mus musculus [26] = assay: as §2, with “improvement of” for “reduction in”, “injury” for “IL-1beta mRNA level”, “Oil Red O staining based light microscopic” for “RT-qPCR”; type: functional, organism-based; conditions: time 5.0 day
Mus musculus [27] = assay: as §2, with “TNF-alpha” for “IL-1beta”; type: functional, organism-based; conditions: time 5.0 day
Mus musculus [28] = assay: Protection against alcohol use disorder in C57BL/6J mouse model assessed as decrease in alcohol intake at 1 mg/kg, po pre-trained with alcohol and water for 42 days with subsequent compound addition from day 22 to day 42 followed by 3.5 hrs of darkness and compound administration for 30 mins followed by water replacement with alcohol for 4 hrs on day 46 by Drink-in-Dark test; type: functional, organism-based; conditions: time 23.0 day
Mus musculus [29] = assay: Protection against alcohol-induced motor impairment in C57BL/6J mouse model assessed as short recovery time by measuring latency to falling off at 1 mg/kg, po preadministered with compound every 24 hrs for 3 times followed by alcohol administration 30 mins post last dose and further treated with compound for 3 days followed by alcohol administration 30 mins post last dose and measured at 2 to 20 mins by rotarod test; type: functional, organism-based; conditions: time 8702-8720 min
Mus musculus [30] = assay: as §2, with “improvement of steatosis” for “reduction in liver IL-1beta mRNA level”, “Oil Red O staining based light microscopic” for “RT-qPCR”; type: functional, organism-based; conditions: time 5.0 day
[31] = Oral bioavailability in Sprague-Dawley rat at 5 mg/kg measured after 24 hrs by LC-MS/MS analysis; type: ADME, organism-based; conditions: in vivo

SMILES: O=C(Nc1c(Cl)cncc1Cl)c1ccc(OC(F)F)c(OCC2CC2)c1 [ROFLUMILAST]
Activity [4]: Toxic

SMILES: CCOc1nc(-c2ccccc2)cc2c1cnn2C1CCOCC1
inhibition [1]: 32% | inhibition [2]: 14%

SMILES: CCOc1nc(-c2ccsc2)cc2c1cnn2C1CCOCC1
inhibition [1]: 4% | inhibition [2]: 3%

SMILES: CCOc1nc(Cl)cc2nn(CC(=O)NO)cc12
Activity (HT-22): Non-Toxic | inhibition [7]: 36% | IC50 [3]: 0.0202 µM | Activity (SH-SY5Y): Non-Toxic | inhibition [2]: 69%

SMILES: CCOc1nc(Cl)cc2nn(CCCC(=O)NO)cc12
inhibition [7]: 18% | IC50 [3]: 0.0517 µM | inhibition [2]: 63%

SMILES: CCOc1cc([C@@H](CS(C)(=O)=O)N2C(=O)c3cccc(NC(C)=O)c3C2=O)ccc1OC [APREMILAST]
Activity [4]: Toxic

SMILES: CCOc1nc(Cl)cc2nn(CCC(=O)NO)cc12
inhibition [7]: 25% | IC50 [3]: 0.0387 µM | inhibition [2]: 66%

SMILES: CCNc1nc(Cl)cc2c1cnn2C1CCCC1
inhibition [1]: 28% | inhibition [2]: 5%

SMILES: CNc1nc(Cl)cc2c1cnn2C1CCCC1
inhibition [1]: 59% | inhibition [2]: 15%

SMILES: COc1ccc(C2CNC(=O)C2)cc1OC1CCCC1 (configuration not stated) [ROLIPRAM]
Activity (Mus musculus [8]): Active | Activity (Mus musculus [9]): Active | Activity (Mus musculus [10]): Active | Activity (Mus musculus [11]): Active | Activity (Mus musculus [12]): Active | Activity (Mus musculus [13]): Active | inhibition [1]: 72% | Activity (Mus musculus [14]): Active | Activity (Mus musculus [15]): Active | Activity (Mus musculus [16]): Active | Activity (Mus musculus [17]): Active | Activity (Mus musculus [18]): inactive | Activity (Mus musculus [19]): Active | Activity (Mus musculus [20]): Active | Activity [21]: Toxic | Activity (Mus musculus [22]): Active | Activity (Mus musculus [23]): Active | inhibition [2]: 34% | Activity (Mus musculus [24]): Active | Activity (Mus musculus [25]): Active | Activity (Mus musculus [26]): Active | Activity (Mus musculus [27]): Active | Activity (Mus musculus [28]): Active | Activity (Mus musculus [29]): inactive | Activity (Mus musculus [30]): Active

SMILES: CCOc1nc(Cl)cc2nn(CCCO)cc12
Activity (HT-22): Non-Toxic | inhibition [7]: 21% | IC50 [3]: 0.0713 µM | Activity (SH-SY5Y): Non-Toxic | inhibition [2]: 53%

SMILES: CCOc1nc(Cl)cc2c1cnn2CC(=O)NO
Activity (HT-22): Non-Toxic | inhibition [7]: 41% | IC50 [3]: 0.0166 µM | Activity (SH-SY5Y): Non-Toxic | inhibition [2]: 68%

SMILES: CC(C)NC(=O)c1ccc(OC(F)F)c(OCC2CC2)c1
bioavailability [31]: 1.2%

Next, values leading:

inhibition [1]: 75% | inhibition [2]: 35%
SMILES: COc1nc(Cl)cc2c1cnn2C1CCOCC1

inhibition [1]: 82% | IC50 [3]: 0.23 µM | inhibition [2]: 32%
SMILES: CCOc1nc(C#N)cc2c1cnn2C1CCOCC1

inhibition [1]: 0% | inhibition [2]: 0%
SMILES: CNc1nc(Cl)cc2c1cnn2C1CCOCC1

inhibition [1]: 8% | inhibition [2]: 4%
SMILES: Clc1cc2c(cnn2C2CCOCC2)c(OC2CC2)n1

inhibition [1]: 35% | inhibition [2]: 16%
SMILES: FC(F)(F)COc1nc(Cl)cc2c1cnn2C1CCOCC1

inhibition [1]: 95% | IC50 [3]: 0.0927 µM | Stability [5]: Stable | inhibition [2]: 64% | Stability [6]: Stable
SMILES: CCOc1nc(Cl)cc2c1cnn2C1CCOCC1

inhibition [1]: 30% | inhibition [2]: 12%
SMILES: CC(C)Oc1nc(Cl)cc2c1cnn2C1CCOCC1

inhibition [1]: 23% | inhibition [2]: 4%
SMILES: CCOc1nc(-c2cccs2)cc2c1cnn2C1CCOCC1

inhibition [1]: 12% | inhibition [2]: 6%
SMILES: CCOc1nc(C(N)=O)cc2c1cnn2C1CCOCC1

inhibition [1]: 5% | inhibition [2]: 2%
SMILES: CCCOc1nc(Cl)cc2c1cnn2C1CCOCC1

inhibition [1]: 10% | inhibition [2]: 5%
SMILES: Clc1cc2c(cnn2C2CCOCC2)c(OC2CCCC2)n1

Stability [5]: Unstable | Stability [6]: Unstable
SMILES: CCOc1nc(Cl)nc2c1cnn2C1CCOCC1

inhibition [1]: 9% | inhibition [2]: 6%
SMILES: CCOc1nc(C(C)=O)cc2c1cnn2C1CCOCC1
